We go through 23 compounds from ChEMBL document CHEMBL1144005, “Orally active 1,2,4-trioxepanes: synthesis and antimalarial activity of a series of 7-arylvinyl-1,2,4-trioxepanes against multidrug-resistant Plasmodium yoelii in Swiss mice” (2008).

Molecules are shown by their SMILES.

Type in all cases: functional
Holding throughout (parameters): scale not given: the % may be the effect or the level left

Experiment [1] concerns Plasmodium yoelii. As to the kind of experiment: Antimalarial activity against multidrug-resistant Plasmodium yoelii in Swiss mice (Mus musculus) as reduced parasitaemia after 4 days at 96 mg/kg peroral dose. The conditions noted are these: route oral.
Experiment [2] relates to Plasmodium yoelii. The experiment in a line: Antimalarial activity as reduced parasitemia at day 4 against multidrug-resistant Plasmodium yoelii in Swiss mice (Mus musculus) at 96 mg/kg Intramuscular dose.
The subject of experiment [3] is Plasmodium yoelii. As to the kind of experiment: Antimalarial activity against multidrug-resistant Plasmodium yoelii in Swiss mice (Mus musculus) as reduced parasitaemia after peroral 48 mg/kg dose for 4 days. The conditions noted are these: route oral.

Regarding `C=C(c1cccc2ccccc12)C1CCOC2(CCCCC2)OO1` (stereo not given), the Activity in the experiment with Plasmodium yoelii [1] came to 17.16%; with Plasmodium yoelii [2] it was 22.25%. Regarding `C=C(c1ccc(Cl)cc1)C1CCOC2(OO1)C1CC3CC(C1)CC2C3` (stereo not given), the figures for the Activity in the experiment with Plasmodium yoelii [1] and with Plasmodium yoelii [2] were 58.38% and 12.18%, respectively. Turning to `C=C(c1ccc(-c2ccccc2)cc1)C1CCOC2(CCC(=O)CC2)OO1` (stereo not given), the Activity is 98.49% in the experiment on Plasmodium yoelii [1] and 100% in the experiment with Plasmodium yoelii [2]. On to `C=C(c1ccccc1)C1CCOC2(CCC(O)CC2)OO1` (stereo not given), for which the Activity is recorded as 53.59% in the experiment with Plasmodium yoelii [1] and 21.39% in the experiment on Plasmodium yoelii [2]. For `C=C(c1ccc(-c2ccccc2)cc1)C1CCOC(C)(C)OO1` (stereo not given), in that order: 98.22% and 42.13%. The like results for `C=C(c1ccc(-c2ccccc2)cc1)C1CCOC2(CCCCC2)OO1` (stereo not given) were, in that order, 91.36% and 24.69%. As for `C=C(c1ccc(-c2ccccc2)cc1)C1CCOC2(CCC(O)CC2)OO1` (stereo not given), the Activity in the experiment on Plasmodium yoelii [1] was found to be 84.13%; in the experiment on Plasmodium yoelii [2], 75.47%. Regarding `C=C(c1ccccc1)C1CCOC(C)(C)OO1` (stereo not given), the Activity worked out at 92.38% with Plasmodium yoelii [1] and 87.31% in the experiment on Plasmodium yoelii [2]. Regarding `C=C(c1ccc(Cl)cc1)C1CCOC2(CCCCC2)OO1` (stereo not given), the values for the Activity in the experiment on Plasmodium yoelii [1] and with Plasmodium yoelii [2] were 24.69% and 46.91%, respectively. For `C=C(c1ccc(-c2ccccc2)cc1)C1CCOC2(CCCC2)OO1` (stereo not given), in that order: 64.38% and 42.36%. Turning to `C=C(c1ccccc1)C1CCOC2(CCCC2)OO1` (stereo not given), the values for the Activity in the experiment on Plasmodium yoelii [1] and in the experiment with Plasmodium yoelii [2] were 18.21% and 58.71%, respectively. For `C=C(c1ccccc1)C1CCOC2(CCC(=O)CC2)OO1` (stereo not given), in that order: 72.02% and 36.6%. Turning to `C=C(c1cccc2ccccc12)C1CCOC2(OO1)C1CC3CC(C1)CC2C3` (stereo not given), the results for the Activity in the experiment with Plasmodium yoelii [1] and in the experiment on Plasmodium yoelii [2] were 38.27% and 11.11%, respectively. As for `C=C(c1ccccc1)C1CCOC2(CCCCC2)OO1` (stereo not given), the Activity with Plasmodium yoelii [1] is reported as 35.8%; in the experiment with Plasmodium yoelii [2], 9.38%. For `C=C(c1ccc(Cl)cc1)C1CCOC(C)(C)OO1` (stereo not given), in that order: 48.77% and 57.64%.

For the compound `C=C(c1ccc(Cl)cc1)C1CCOC2(CCC(O)CC2)OO1` (stereo not given), the Activity in the experiment on Plasmodium yoelii [1] was 54.59%; in the experiment on Plasmodium yoelii [2], 11.47%. The like results for `C=C(c1ccc(Cl)cc1)C1CCOC2(CCCC2)OO1` (stereo not given) were, in that order, 27.16% and 6.17%. The like results for `C=C(c1cccc2ccccc12)C1CCOC(C)(C)OO1` (stereo not given) were, in that order, 70.37% and 32.1%. `C=C(c1ccc(Cl)cc1)C1CCOC2(CCC(=O)CC2)OO1` (stereo not given): the Activity stood at 23.36% in the experiment on Plasmodium yoelii [1] and 100% with Plasmodium yoelii [2]. For `C=C(c1ccc(-c2ccccc2)cc1)C1CCOC2(OO1)C1CC3CC(C1)CC2C3` (stereo not given), in that order: 44.78% and 31.98%. For `C=C(c1ccccc1)C1CCOC2(OO1)C1CC3CC(C1)CC2C3` (stereo not given), in that order: 57.36% and 27.41%. For `C=C(c1cccc2ccccc12)C1CCOC2(CCCC2)OO1` (stereo not given), in that order: 49.75% and 19.8%. Compound `CCO[C@H]1O[C@@H]2O[C@@]3(C)CC[C@H]4[C@H](C)CC[C@@H]([C@H]1C)[C@@]24OO3` [ARTEMOTIL] came in with an Activity with Plasmodium yoelii [3] of 100%.
